Data taken from patent US6410250B1 (priority 1996, dated 2002).
Entries after “also recorded” stand apart in the source; their conditions may differ.

How the values were obtained:
[1] = test system: L. major; experiment: Growth of L. major promastigotes in liquid medium with drug; assay type: cell-based, Leishmania major
[2] = In vivo rescue of dhfr-ts- phenotype with thymidine osmotic pumps; parameters: species or system mice; settings: continuous thymidine supplementation
[3] = test system: Starch-elicited peritoneal macrophages; experiment: Infection of starch-elicited peritoneal macrophages in vitro; assay type: cell-based, mouse; settings: thymidine 100 μg/ml added to the medium
[4] = test system: draining lymph node cells; assay type: cell-based, mouse

Molecule: CN(Cc1cnc2nc(N)nc(N)c2n1)c1ccc(C(=O)N[C@@H](CCC(=O)O)C(=O)O)cc1 [MTX, methotrexate]
- EC50 ([1]; Leishmania major, wild-type or heterozygous (+/HYG) cells, liquid media, read-out: concentration of MTX required to inhibit cell growth by 50% (EC50)): ~1000 nM
- growth in presence of MTX ([1]; dhfr-ts^− NEO/HYG knockout, 100 μM MTX, liquid media): grew well

Molecule: Cc1cn([C@H]2C[C@H](O)[C@@H](CO)O2)c(=O)[nH]c1=O [thymidine]
- restoration of animal infectivity of dhfr-ts^− by thymidine supplementation [2]: partially restored; also recorded: partially restore infectivity
- effect of thymidine on dhfr-ts^− in macrophages [3]: restored both survival and replication

Molecule: bacillus Calmette-Guerin
- proliferation as [3H]thymidine incorporation [4]: 1100±1000 cpm

Molecule: CN[C@H]1C[C@@H](N)[C@H](O)[C@@H](O[C@@H]2O[C@H](CO)[C@H](O)[C@@H]3OC4(O[C@H]23)O[C@H]([C@@H](N)CO)[C@H](O)[C@H](O)[C@H]4O)[C@@H]1O (stereo partly shown) [hygromycin B]
- hygromycin B concentration resulting in a 50% reduction in growth ([1]; +/HYG line): 200 μg per ml

B1: ovalbumin (protein, UniProt P01012 2-386, looked up)
Ovalbumin: GSIGAASMEFCFDVFKELKVHHANENIFYCPIAIMSALAMVYLGAKDSTRTQINKVVRFDKLPGFGDSIEAQCGTSVNVHSSLRDILNQITKPNDVYSFSLASRLYAEERYPILPEYLQCVKELYRGGLEPINFQTAADQARELINSWVESQTNGIIRNVLQPSSVDSQTAMVLVNAIVFKGLWEKAFKDEDTQAMPFRVTEQESKPVQMMYQIGLFRVASMASEKMKILELPFASGTMSMLVLLPDEVSGLEQLESIINFEKLTEWTSSNVMEERKIKVYLPRMKMEEKYNLTSVLMAMGITDVFSSSANLSGISSAESLKISQAVHAAHAEINEAGREVVGSAEAGVDAASVSEEFRADHPFLFCIKHIATNAVLFFGRCVSP
notes: antigen preparation used as specificity control in lymph node proliferation assay
- proliferation as [3H]thymidine incorporation [4]: 2600±1100 cpm
